# Experimental data taken from PMC7395068, “The evolution of strategies to minimise the risk of human drug-induced liver injury (DILI) in drug discovery and development” (Archives of Toxicology, 2020).
# Like-named read-outs stand apart in the source and are kept apart here.
# Key:
# [1] = Plasma free fraction (fu) and unbound Cmax (Cmax,u); format: in vitro ADME, human; details: unbound plasma Cmax
# Experimental: The prediction of DILI severity was evaluated further using the 3D combined HCI assays using plasma-free fraction. The majority of fu values were obtained from literature, when unavailable in-house prediction was utilised. Unbound plasma Cmax concentrations (Cmax,u) were derived by multiplying total plasma Cmax with the corresponding free fraction (fu) for each compound.
# HepG2 = tested on: HepG2; design: method as in Albrecht 2019; details: In vitro Assay; ref Albrecht 2019; cited from earlier work
# [2] = cited from earlier work
# [3] = tested on: primary human hepatocytes, NIH3T3 fibroblasts, BSEP, CYP3A4; details: cited from earlier work
# HepG2 cells [4] = details: cited from earlier work
# HepG2 cells [5] = details: cited from earlier work; remark: listed apart in the source
# human hepatocytes = details: cited from earlier work
# [6] = tested on: THLE or HepG2 cells, isolated mitochondria, BSEP; details: cited from earlier work
# PHH [7] = details: cited from earlier work
# hLiMTs [8] = details: cited from earlier work
# PHH spheroids = details: In vitro Assay; ref Vorrink 2018; cited from earlier work
# [9] = tested on: HepG2 C3A spheroid, BSEP, Glu/Gal in HepG2 cells, bioactivation; details: cited from earlier work
# [10] = read-out: Human plasma Cmax; total plasma Cmax.tot, median of 9 literature references; cited from earlier work
# [11] = plasma free fraction; cited from earlier work
# [12] = cited from earlier work; remark: listed apart in the source
# PHH [13] = details: In vitro Assay; ref Albrecht 2019; cited from earlier work
# [14] = tested on: THLE-Null and THLE-3A4 cells; details: In vitro Assay; ref Gustafsson 2014; cited from earlier work
# [15] = tested on: HepG2 cells, primary human hepatocytes; details: In vitro Assay; ref Garside 2014; cited from earlier work
# [16] = tested on: isolated mouse liver mitochondria; details: In vitro Assay; ref Porceddu 2012; cited from earlier work
# rBsep = details: In vitro Assay; ref Dawson 2012; cited from earlier work
# hLiMTs [17] = assay: Combined HCI (HCS) and cellular ATP 3D assay in hLiMTs; details: for AC50 / minimal effective concentration: Homo sapiens
# HepaRG spheroids = assay: Combined HCI (HCS) and cellular ATP 3D assay in HepaRG spheroids; details: for AC50 / minimal effective concentration: Homo sapiens
# [18] = In vitro Assay, ref Schadt 2015
# [19] = In vitro Assay, ref Persson 2013
# [20] = Modeled in vitro assays (cytotoxicity, mitochondrial dysfunction, BSEP), ref Aleo et al. 2019
# [21] = In vitro Assay, ref Proctor 2017
# [22] = Microtissue model structural based (HCI), combined HCS and ATP, MEC < 25 × Cmax.tot cut-off
smiles,measurement,setting,value
"Cc1c(C)c2c(c(C)c1O)CCC(C)(COc1ccc(CC3SC(=O)NC3=O)cc1)O2 (stereo not drawn) [troglitazone, reference compound]","Human plasma Cmax,u",[1],0.064 µM
same,Cytotoxicity HepG2 48 hrs,HepG2,+VE
same,DILI severity category (Chen et al. [2016]),"[2]; LTKB DILIrank category, ref Chen et al. 2016",Most
same,DILI severity category (Chen 2016),"[2]; human DILI classification, LTKB DILIrank, ref Chen et al. 2016",Most
same,DILI severity category,"[2]; human DILI severity, ref Chen et al.",Most
same,"DILI +VE (5-8), DILI -VE (-4)",[2]; ref Chen 2016,+VE
same,DILI severity category,[2]; ref Chen 2016,vMost-DILI-Concern
same,"DILI in vitro assay prediction, Schadt (2015)","[3]; BSEP & Metabolism based, ref Schadt et al. 2015",+VE
same,Cellular toxicity (3T3 cells),[3]; [18],+VE
same,Combined Assay,[3]; [18],+VE
same,GSH adduct HML,[3]; [18],+VE
same,Hepatocyte cellular toxicity,[3]; [18],+VE
same,MitoTox 3T3,[3]; [18],-VE
same,TDI CYP3A4,[3]; [18],+VE
same,hBSEP inhibition,[3]; [18],+VE
same,Cluser analysis,HepG2 cells [4]; [19],+VE
same,Structural based (HCI),HepG2 cells [4]; [19],+VE
same,"DILI in vitro assay prediction, Persson (2013)","HepG2 cells [4]; Structural based (HCI), HepG2, ref Persson et al. 2013",+VE
same,Structural based (HCI),"HepG2 cells [5]; In vitro Assay, ref Tolosa 2012",+VE
same,"DILI in vitro assay prediction, Tolosa (2012)","HepG2 cells [5]; Structural based (HCI), HepG2, ref Tolosa et al. 2012",+VE
same,Structural based (HCI),"human hepatocytes; In vitro Assay, ref Xu 2008",+VE
same,"DILI in vitro assay prediction, Xu (2008)","human hepatocytes; Structural based (HCI), human hepatocytes, ref Xu et al. 2008",+VE
same,Partition Hybrid HRM Score,"[6]; In vitro Assay, ref Aleo 2019",+VE
same,Ro2 Hybrid HRM Score,"[6]; In vitro Assay, ref Aleo 2019",+VE
same,"Partition Hybrid HRM Score ≥4, Aleo (2019)",[6]; [20],+VE (Partition Hybrid HRM Score ≥4)
same,"Partition Hybrid HRM Score ≥8, Aleo (2019)",[6]; [20],+VE (Partition Hybrid HRM Score ≥8)
same,"Rule of Two hybrid HRM Score ≥3, Aleo (2019)",[6]; [20],+VE (Rule of Two hybrid HRM Score ≥3)
same,"Rule of Two hybrid HRM Score ≥8, Aleo (2019)",[6]; [20],+VE (Rule of Two hybrid HRM Score ≥8)
same,"PHH/100xCmax, Proctor (2017)","PHH [7]; 2D PHH, ATP, IC50 < 100 × Cmax.tot, ref Proctor et al. 2017",-VE
same,"PHH/100uM, Proctor (2017)","PHH [7]; 2D PHH, ATP, IC50 threshold 100 µM, ref Proctor et al. 2017",-VE
same,PHH ATP <100uM,PHH [7]; [21],-VE
same,hLiMTs ATP <100uM,hLiMTs [8]; [21],+VE (IC50 threshold of 100 µM)
same,"hLiMTs/100xCmax, Proctor (2017)","hLiMTs [8]; hLiMTs, ATP, IC50 < 100 × Cmax.tot, ref Proctor et al. 2017",+VE (IC50 < 100 × Cmax.tot)
same,"hLiMTs/100uM, Proctor (2017)","hLiMTs [8]; hLiMTs, ATP, IC50 threshold 100 µM, ref Proctor et al. 2017",+VE (IC50 threshold of 100 µM)
same,hLiMTs ATP <20 x Cmax,PHH spheroids,+VE (IC20 < 20 × Cmax.tot cut-off)
same,"Bayesian Machine Learning DILI prediction, Williams (2019)","[9]; Bayesian modeling, ref Williams et al. 2019",+VE
same,Bayesian Machine Learning,"[9]; In vitro Assay, ref Williams 2019",+VE
same,Cmax,[10],6.39 µM
same,fu,[11],0.010
same,Assigned DILI category,"[12]; Chen et al. 2016 or literature alignment, ref Chen et al. 2016",3
same,In vivo DILI,[12]; […],+VE
same,In vivo DILI,[12]; ref Albrecht 2019,+VE
same,In vivo DILI,[12]; ref Aleo 2019,+VE
same,In vivo DILI,[12]; ref Dawson 2012,+VE
same,In vivo DILI,[12]; ref Garside 2014,+VE
same,In vivo DILI,[12]; ref Gustafsson 2014,+VE
same,In vivo DILI,[12]; ref Persson 2013,+VE
same,In vivo DILI,[12]; ref Porceddu 2012,+VE
same,In vivo DILI,[12]; ref Proctor 2017,+VE
same,In vivo DILI,[12]; ref Schadt 2015,+VE
same,In vivo DILI,[12]; ref Tolosa 2012,+VE
same,In vivo DILI,[12]; ref Vorrink 2018,+VE
same,In vivo DILI,[12]; ref Williams 2019,+VE
same,In vivo DILI,[12]; ref Xu 2008,+VE
same,Cytotoxicity PHH 48 hrs,PHH [13],+VE
same,THLE-Null,[14],+VE
same,THLE-Null/3A4,[14],-VE
same,Cluster 1-6 +VE Assay,[15],+VE
same,in vitro data EC2<=1x Cmax,[16],+VE
same,in vitro data EC20<=2uM,[16],+VE
same,Inhibition of rBsep cutoff<1& cmax u>.2,rBsep,+VE
same,Inhibition of rBsep cutoff<3,rBsep,+VE
same,AC50,hLiMTs [17]; read-out: ATP endpoint AC50,89.5 µM
same,minimal effective concentration,hLiMTs [17]; read-out: ATP endpoint MEC,74 µM
same,AC50,hLiMTs [17]; read-out: HCS endpoint AC50,73.6 µM
same,minimal effective concentration,hLiMTs [17]; read-out: HCS endpoint MEC,67.6 µM
same,DILI prediction hLiMTs (HCS-MEC),hLiMTs [17]; [22],+VE (MEC < 25 × Cmax.tot cut-off)
same,hLiMTs <25x Avg Cmax ATP,"hLiMTs [17]; hLiMTs, ATP endpoint, cut-off <25x Avg Cmax",+ve
same,hLiMTs <100x Avg Cmaxu ATP,"hLiMTs [17]; hLiMTs, ATP endpoint, cut-off <100x Avg Cmaxu",-ve
same,hLiMTs <25x Avg Cmax HCS,"hLiMTs [17]; hLiMTs, HCS endpoints, cut-off <25x Avg Cmax",+ve
same,hLiMTs <100x Avg Cmaxu HCS,"hLiMTs [17]; hLiMTs, HCS endpoints, cut-off <100x Avg Cmaxu",-ve
same,hLiMTs <25x Avg Cmax All,"hLiMTs [17]; hLiMTs, all endpoints (ATP and HCS), cut-off <25x Avg Cmax",+ve
same,hLiMTs Cmax max All,"hLiMTs [17]; hLiMTs, all endpoints, Cmax max used",+ve
same,hLiMTs Cmax min All,"hLiMTs [17]; hLiMTs, all endpoints, Cmax min used",+ve
same,hLiMTs <10 uM All,"hLiMTs [17]; hLiMTs, all endpoints, cut-off <10 uM",-ve
same,hLiMTs <100x Avg Cmaxu All,"hLiMTs [17]; hLiMTs, all endpoints, cut-off <100x Avg Cmaxu",-ve
same,HepaRG <25x Avg Cmax ATP,"HepaRG spheroids; HepaRG, ATP endpoint, cut-off <25x Avg Cmax",+ve
same,HepaRG <100x Avg Cmaxu ATP,"HepaRG spheroids; HepaRG, ATP endpoint, cut-off <100x Avg Cmaxu",-ve
same,HepaRG <25x Avg Cmax HCS,"HepaRG spheroids; HepaRG, HCS endpoints, cut-off <25x Avg Cmax",+ve
same,HepaRG <100x Avg Cmaxu HCS,"HepaRG spheroids; HepaRG, HCS endpoints, cut-off <100x Avg Cmaxu",-ve
same,HepaRG <25x Avg Cmax All,"HepaRG spheroids; HepaRG, all endpoints (ATP and HCS), cut-off <25x Avg Cmax",+ve
same,HepaRG Cmax max All,"HepaRG spheroids; HepaRG, all endpoints, Cmax max used",+ve
same,HepaRG Cmax min All,"HepaRG spheroids; HepaRG, all endpoints, Cmax min used",+ve
same,HepaRG <10 uM All,"HepaRG spheroids; HepaRG, all endpoints, cut-off <10 uM",-ve
same,HepaRG <100x Avg Cmaxu All,"HepaRG spheroids; HepaRG, all endpoints, cut-off <100x Avg Cmaxu",-ve
same,AC50,"HepaRG spheroids; HepaRG, read-out: ATP endpoint AC50",28.8 µM
same,minimal effective concentration,"HepaRG spheroids; HepaRG, read-out: ATP endpoint MEC",25 µM
same,AC50,"HepaRG spheroids; HepaRG, read-out: HCS endpoint AC50",33 µM
same,minimal effective concentration,"HepaRG spheroids; HepaRG, read-out: HCS endpoint MEC",22 µM
same,DILI prediction HepaRG spheroids (HCS-MEC),HepaRG spheroids; [22],+VE (MEC < 25 × Cmax.tot cut-off)
